Test results as given in patent publication US20260306494A1, “LIQUID AND SOLID COMPOSITIONS OF IMIPRIDONE DERIVATIVES” (INSTITUT GUSTAVE ROUSSY, priority 2023, published 2026).
Values belong to the molecule of their own block, whether it stands above or below them.

Experiments:
[1] = in vivo; cited from earlier work
recurrent H3K28M DMG = details: human, in vivo; cited from earlier work
physchem = details: water, solubility in water

SMILES: NC(=O)c1cccnc1 [Nicotinamide]
NOAEL (No Observed Adverse Effect Level) [1]: around 200 mg/kg bw

SMILES: Cc1ccccc1CN1C(=O)C2=C(CCN(Cc3ccccc3)C2)N2CCN=C12 [ONC201, 7-Benzyl-4-(2-methylbenzyl)-1,2,6,7,8,9-hexahydroimidazo[1,2-a]pyrido[3,4-e]pyrimidin-5 (4H)-one]
response of patients (recurrent H3K28M DMG): sustained response

solubility (physchem): 41.4 mg/mL
SMILES: Cc1ccccc1CN1C(=O)C2=C(CCN(Cc3ccccc3)C2)N2CCN=C12 [ONC201.2HCl]
